pEC50: −log10 of the molar value.
Legend:
[1] = test system: bitter taste perception of 48 Caucasian subjects; assay: Human psychophysical bitter taste tests (4-AFC recognition thresholds, gLMS intensity ratings); assay type: in vivo; conditions: for concentration perceived as strongly bitter, fold range across subjects / concentration perceived as strongly bitter, mode: gLMS strong intensity; for concentration perceived as weakly bitter, fold range across subjects / concentration perceived as weakly bitter, mode: gLMS weak intensity
Protocol: All were pre-screened to avoid inclusion of individuals with health problems and overt taste pathologies; pregnant and breast-feeding women were also excluded. Each subject participated in the entire course of the study, which included one training session and nine experimental sessions. Visits consisted of DNA collection and psychophysical tests for genotyping and phenotypic analyses, respectively. General taste abilities were also assessed for the bitter, salty, sour, and sweet taste during the first session.
Experiments were conducted at the sensory analysis laboratory of the German Institute of Human Nutrition Potsdam-Rehbruecke, according to good practice guidelines. […] Perceived bitter taste intensities were rated on the general Labelled Magnitude Scale (gLMS; [72–74]). […] For each 4-AFC test, four coded samples containing 10 ml solution were presented simultaneously; one containing the bitter tastant diluted in mineral water (Evian; Danone, Paris, France) and three containing mineral water only. At each concentration, subjects were challenged to identify the different sample, specify whether the quoted sample tasted bitter, and rate the perceived bitter intensity. Tests were performed with nose clips and oral rinsing, with a 45 s pause between concentrations. Training sessions were first used to familiarize subjects with the experimental procedures, and secondly, to assess general taste abilities. Concentration series consisted of geometric sequences of […], with a 1.5 common ratio and the following concentration ranges: 3.5x10^-5–2.0x10^-3M, 6.9x10^-4–4.0x10^-2 M, 2.6x10^-4–1.5x10^-2 M, 6.9x10^-4–4.0x10^-2 M, for salicin, sodium chloride, citric acid, and sucrose used as reference tastants for bitter, salty, sour, and sweet taste, respectively. Following training, subjects tested each tastant in triplicate over nine sessions. Latin square designs extended for first-order carry-over effects were used to counterbalance presentation order of the test compounds over the test sessions, across subjects and for each test compound, as well as presentation order of the samples at each concentration across both repetitions and subjects. Sensory sessions were monitored and data automatically collected (Fizz; Biosystèmes, Couternon, France).
Detection and recognition probabilities of the bitter samples were analysed per repetition and subject. Relationships between probabilities (detection or recognition probabilities) and concentrations were fitted by a logistic regression model using the maximum-likelihood method. Threshold value and slope of the logistic curves were then obtained per repetition and subject, using a self-implemented toolbox (Matlab; The MathWorks Inc.). […] Where required, outliers were discarded according to the Peirce’s criterion. Perceived intensities, expressed in percentage of the scale length, were analysed similarly.

TAS2R46-H2 = biological target: T1, TAS2R46-H2 (Homo sapiens, UniProt P59540); assay: Calcium imaging in HEK 293T Gα16gust44 cells transfected with TAS2R46-H2; assay type: cell-based; conditions: TAS2R46-H2, truncated variant (premature stop codon)
T1 construct: TAS2R46-H2, a truncated, six-transmembrane variant of the receptor; N-terminal signal for cell surface localisation (N); expressed in transfected cells; host or cells: HEK 293T cells stably expressing the G protein chimera Gα16gust44
T1 sequence (P59540 1-249 limits assumed): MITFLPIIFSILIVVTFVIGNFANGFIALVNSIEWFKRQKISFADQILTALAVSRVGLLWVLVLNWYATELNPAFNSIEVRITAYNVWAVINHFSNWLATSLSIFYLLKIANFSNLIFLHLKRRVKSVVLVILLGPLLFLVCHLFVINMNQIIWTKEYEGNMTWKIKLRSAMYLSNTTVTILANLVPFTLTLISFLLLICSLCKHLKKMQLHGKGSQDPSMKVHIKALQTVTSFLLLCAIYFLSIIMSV
Text: (§1) Allelic responses to agonists were quantified using in vitro heterologous expression assays designed in previous studies of TAS2R receptor function, which successfully mimic responses in vivo with respect to both magnitude and concentration range [17, 23, 25, 26, 46]. DNA fragments containing TAS2R coding sequences were first amplified from genomic DNA by PCR using a proofreading polymerase (PfuUltra II Fusion HotStart DNA Polymerase; Agilent Technologies, Santa Clara, CA, USA) and cloned into a plasmid vector according to the manufacturer’s protocol (Zero Blunt TOPO PCR Cloning Kit; Life Technologies). A second PCR was performed using specific cloning primers to facilitate subcloning into the expression vector, which was then modified to add an N-terminal signal for cell surface localisation and a C-terminal epitope for immunocytochemical detection to the receptor sequence (Fast Link DNA Ligation Kit; Epicentre, Illumina Inc., Madison, WI, USA) (pcDNA5/FRT Mammalian Expression Vector; Life Technologies). Empty vector was used as a negative control.
(§2) Functional assays were carried out in HEK 293T cells stably expressing the G protein chimera Gα16gust44 and transiently transfected with TAS2R alleles subcloned into the expression vector [78]. Calcium imaging was performed using an automated fluorometric imaging plate reader by exposing transfected cells to test compounds dissolved in assay buffer or to assay buffer alone (FLIPR Tetra; Molecular Devices, LLC, Sunnyvale, CA, USA). Changes in cytosolic calcium levels were monitored by measuring fluorescence intensity of a calcium-sensitive dye previously added (Fluo-4 AM; Life Technologies). Six replicates were carried out for each bitter stimulus, on separate experimental days, with each replicate consisting of concentration series of each bitter tastant.
(§3) Prior to final analysis, fluorescence data from functional assays, expressed in relative fluorescence units (RFU), underwent three corrections. First, a correction calculated from baseline values was applied to compensate for well-to-well fluctuations. A second correction calculated from negative control values was applied to correct for receptor independent artefacts and signal drift. A third correction calculated from positive control values was applied to facilitate comparison of data obtained from different experimental days. Fluorescence ratios ((F-F0)/F0), obtained by subtracting the background fluorescence from fluorescence peak height and then dividing the difference by the background fluorescence, were then used for data analysis. Variance analyses were performed, followed by Bonferroni multiple comparisons tests (SPSS 20; IBM Corporation, Armonk, NY, USA). Threshold response values were then defined as the first concentration eliciting a significant activation of the receptor, with empty vector acting as a negative control. Finally, dose-response curves were fitted to the Hill equation by nonlinear regression in order to determine half maximal effective concentrations (EC50) and maximal amplitude (SigmaPlot; Systat Software Inc., Chicago, IL, USA).

TAS2R46-H1 = biological target: T2, TAS2R46-H1 (Homo sapiens, UniProt P59540); assay: Calcium imaging in HEK 293T Gα16gust44 cells transfected with TAS2R46-H1; assay type: cell-based; conditions: for threshold: first concentration eliciting significant receptor activation
T2 construct: N-terminal signal for cell surface localisation (N); expressed in transfected cells; host or cells: HEK 293T cells stably expressing the G protein chimera Gα16gust44
T2 sequence (P59540 1-309): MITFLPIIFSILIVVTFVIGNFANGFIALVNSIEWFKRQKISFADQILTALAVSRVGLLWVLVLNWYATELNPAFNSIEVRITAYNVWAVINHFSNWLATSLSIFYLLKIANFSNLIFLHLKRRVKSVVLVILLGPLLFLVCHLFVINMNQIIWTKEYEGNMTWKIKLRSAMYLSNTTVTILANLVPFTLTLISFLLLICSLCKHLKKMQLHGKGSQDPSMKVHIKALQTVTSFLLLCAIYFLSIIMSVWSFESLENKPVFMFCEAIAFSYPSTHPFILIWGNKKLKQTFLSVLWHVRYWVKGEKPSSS
Text: as §1, §2, §3

TAS2R43-H2 = assay: Calcium imaging in HEK 293T Gα16gust44 cells transfected with TAS2R43-H2; assay type: cell-based, human; conditions: for threshold: first concentration eliciting significant receptor activation
Text: as §1, §2
as §3, with “Threshold response values were then defined as the first concentration eliciting a significant activation of the receptor, with empty vector acting as a negative control. Finally, dose-response curves were fitted to the Hill equation by nonlinear regression in order to determine half maximal effective concentrations (EC50) and maximal amplitude (SigmaPlot; Systat Software Inc., Chicago, IL, USA).” left out

[2] = test system: every known TAS2R in humans; set-up: method as in PMID 20022913; conditions: complete TAS2R family; cited from earlier work
TAS2R46-H3 = assay: Calcium imaging in HEK 293T Gα16gust44 cells transfected with TAS2R46-H3; assay type: cell-based, human; conditions: for threshold: first concentration eliciting significant receptor activation
Text: as §1, §2, §3

TAS2R43-H1 = assay: Calcium imaging in HEK 293T Gα16gust44 cells transfected with TAS2R43-H1; assay type: cell-based, human; conditions: for threshold: first concentration eliciting significant receptor activation
Text: as §1, §2
as §3, with “Threshold response values were then defined as the first concentration eliciting a significant activation of the receptor, with empty vector acting as a negative control. Finally, dose-response curves were fitted to the Hill equation by nonlinear regression in order to determine half maximal effective concentrations (EC50) and maximal amplitude (SigmaPlot; Systat Software Inc., Chicago, IL, USA).” left out

TAS2R30-H1 = assay: Calcium imaging in HEK 293T Gα16gust44 cells transfected with TAS2R30-H1; assay type: cell-based, human; conditions: for threshold: first concentration eliciting significant receptor activation
Text: as §1, §2, §3

TAS2R30-H2 = assay: Calcium imaging in HEK 293T Gα16gust44 cells transfected with TAS2R30-H2; assay type: cell-based, human; conditions: for threshold: first concentration eliciting significant receptor activation
Text: as §1, §2, §3

[3] = test system: TAS2R30, -31, -43, and -46; assay: Calcium imaging functional assays, statements across TAS2R loci (variants not resolved); assay type: cell-based, human
Text: as §1
as §2, with “Six replicates were carried out for each bitter stimulus, on separate experimental days, with each replicate consisting of concentration series of each bitter tastant.” left out
Prior to final analysis, fluorescence data from functional assays, expressed in relative fluorescence units (RFU), underwent three corrections. First, a correction calculated from baseline values was applied to compensate for well-to-well fluctuations. A second correction calculated from negative control values was applied to correct for receptor independent artefacts and signal drift. […]

Molecule	recognition threshold, fold range across subjects ([1]; 48 human subjects)	concentration perceived as strongly bitter, fold range across subjects [1]	concentration perceived as strongly bitter, mode [1]	concentration perceived as weakly bitter, fold range across subjects [1]	concentration perceived as weakly bitter, mode [1]	receptor variant response (TAS2R46-H2)	pEC50 (TAS2R46-H1)	maximum amplitude (TAS2R46-H1)	threshold (TAS2R46-H1)	threshold (TAS2R43-H2)	TAS2Rs responsive in published receptor-agonist inventory [2]	pEC50 (TAS2R46-H3)	maximum amplitude (TAS2R46-H3)	threshold (TAS2R46-H3)	threshold (TAS2R43-H1)	receptor variant response (TAS2R46-H1)	receptor variant response (TAS2R30-H1)	receptor variant response (TAS2R46-H3)	pEC50 (TAS2R30-H1)	maximum amplitude (TAS2R30-H1)	further results
C=C1C(=O)O[C@H]2[C@H]1[C@@H](O)CC(=C)[C@@H]1CC(=O)[C@@H](C)[C@H]21 [grosheimin]	25 fold	5 fold	33 µM	17 fold	15000 nM	not activated at any concentration	5.25	0.87 ΔF/F	1 µM	3 µM	only TAS2R43 and -46	5.12	0.50 ΔF/F	3 µM	10 µM	–	–	–	–	–	pEC50 (TAS2R43-H2): 5.16; maximum amplitude (TAS2R43-H2): 0.81 ΔF/F; pEC50 (TAS2R43-H1): 4.80; maximum amplitude (TAS2R43-H1): 0.60 ΔF/F
CC(=O)O[C@@H]1C[C@]2(C)[C@H](CC[C@@H](O)[C@]2(C)O)[C@@](C=O)(C[C@@H](O)c2ccoc2)[C@@H]1C [cascarillin]	17 fold	–	–	11 fold	–	insensitive	–	–	–	–	–	–	–	–	–	sensitive	sensitive	intermediate	–	–	receptor variant response (TAS2R30-H2): insensitive; minimum concentration required to elicit response in functional assays ([3]; TAS2R30 and -46 variants): 30 µM
CC1=C[C@H]2[C@H]3[C@H](C(C)=C4[C@H]5OC(=O)[C@@H](C)[C@@H]5CC[C@](C)(O)[C@@H]43)[C@@]13[C@@H]2[C@@](C)(O)CC[C@H]1[C@H](C)C(=O)O[C@@H]13 [absinthin]	40 fold	5 fold	1.3 µM	15 fold	390 nM	no response at any concentration	4.96	0.63 ΔF/F	3 µM	–	TAS2R30 and -46	4.85	0.48 ΔF/F	10 µM	–	–	–	–	5.51	0.41 ΔF/F	threshold (TAS2R30-H1): 300 nM; pEC50 (TAS2R30-H2): 5.89; maximum amplitude (TAS2R30-H2): 0.15 ΔF/F; threshold (TAS2R30-H2): 1000 nM
COC1=C[C@@H](C)[C@@H]2C[C@H]3OC(=O)C[C@H]4C(C)=C(OC)C(=O)[C@H]([C@@]2(C)C1=O)[C@@]34C [quassin]	38 fold	8 fold	–	26 fold	–	least sensitive	–	–	–	–	–	–	–	–	–	most sensitive	responding in ranges matching phenotypic recognition threshold	intermediate	–	–	TAS2Rs activated in vitro [3]: only TAS2R30 and TAS2R46
amarogentin	–	less than 4 fold	–	17 fold	50 nM	not activated at any concentration	4.17	0.57 ΔF/F	30 µM	300 µM	TAS2R1, -4, -39, -43, -46, -30, and -50	–	–	100 µM	300 µM	–	–	–	6.39	0.50 ΔF/F	bitter taste recognition threshold, mode of distribution ([1]; 48 human subjects): 40 nM; threshold (TAS2R30-H1): 10 nM; pEC50 (TAS2R30-H2): 6.41; maximum amplitude (TAS2R30-H2): 0.12 ΔF/F; threshold (TAS2R30-H2): 300 nM; activation concentration of TAS2R43 relative to TAS2R30 ([3]; fold higher than TAS2R30): 3000 fold

— publication PMC4583475, “Receptor Polymorphism and Genomic Structure Interact to Shape Bitter Taste Perception” (PLoS Genetics, 2015)
